Measurements: publication PMC4689404, “2-Benzazolyl-4-Piperazin-1-Ylsulfonylbenzenecarbohydroxamic Acids as Novel Selective Histone Deacetylase-6 Inhibitors with Antiproliferative Activity” (PLoS ONE, 2015)

Legend:
IGROV1 = assay: NCI 60 screen, five dose; type: cell-based; settings: Homo sapiens, IGROV-1, Ovarian Cancer, GI50 = molar concentration, read-out: Log10 GI50 (converted)
Leukemia cell lines = assay: NCI 60 screen, five dose; type: cell-based, human; settings: for GI50: Homo sapiens; for no. cell lines used for the assay/no inhibited by compound: figures in parenthesis
SW-620 = assay: NCI 60 screen, five dose; type: cell-based; settings: Homo sapiens, Colon Cancer, GI50 = molar concentration, read-out: Log10 GI50 (converted)
SK-OV-3 = assay: NCI 60 screen, five dose; type: cell-based; settings: Homo sapiens, Ovarian Cancer, GI50 = molar concentration, read-out: Log10 GI50 (converted)
HBEC-34KT = assay: MTS viability assay; type: cell-based, human; settings: Homo sapiens, 96 h, Patient B normal line, 4 days, read-out: Antiproliferative activity IC50, HBEC-34KT
Experimental: (§1) Lung cancer cells (kindly provided by Dr. John D. Minna, [13, 21]) were maintained in RPMI 1640 media supplemented with 10% FBS. Immortalized normal human bronchial epithelial cells (also provided by Dr. John D. Minna) were cultured in KSFM supplemented with pituitary extract and EGF. For viability assays, cells were plated on 96 well plates and grown overnight. Cells were then exposed to increasing doses of the indicated compounds for 4 days and their viability assayed using the Promega Cell Titer 96 AQueous One kit per the manufacturer’s protocol. All doses were tested in 4–8 replicates. IC50 values were calculated using the in-house software DIVISA.

HBEC-30KT = assay: MTS viability assay; type: cell-based, human; settings: Homo sapiens, 96 h, Patient A normal line, 4 days, read-out: Antiproliferative activity IC50, HBEC-30KT
Experimental: as §1

CAKI-1 = assay: NCI 60 screen, five dose; type: cell-based; settings: Homo sapiens, Renal Cancer, GI50 = molar concentration, read-out: Log10 GI50 (converted)
Breast cancer cell lines = assay: NCI 60 screen, five dose; type: cell-based, human; settings: for GI50: Homo sapiens; for no. cell lines used for the assay/no inhibited by compound: figures in parenthesis
SK-MEL-2 = assay: NCI 60 screen, five dose; type: cell-based; settings: Homo sapiens, Melanoma, GI50 = molar concentration, read-out: Log10 GI50 (converted)
ACHN = assay: NCI 60 screen, five dose; type: cell-based; settings: Homo sapiens, Renal Cancer, GI50 = molar concentration, read-out: Log10 GI50 (converted)
CCRF-CEM = assay: NCI 60 screen, five dose; type: cell-based; settings: Homo sapiens, Leukemia, GI50 = molar concentration, read-out: Log10 GI50 (converted)
CNS cancer cell lines = assay: NCI 60 screen, five dose; type: cell-based, human; settings: for GI50: Homo sapiens; for no. cell lines used for the assay/no inhibited by compound: figures in parenthesis
SF-539 = assay: NCI 60 screen, five dose; type: cell-based; settings: Homo sapiens, CNS Cancer, GI50 = molar concentration, read-out: Log10 GI50 (converted)
[1] = tested on: Prostate Cancer cell lines; assay: NCI 60 screen, five dose; type: cell-based, human; settings: for GI50: Homo sapiens; for no. cell lines used for the assay/no inhibited by compound: figures in parenthesis
LOX IMVI = assay: NCI 60 screen, five dose; type: cell-based; settings: Homo sapiens, Melanoma, GI50 = molar concentration, read-out: Log10 GI50 (converted)
U251 = assay: NCI 60 screen, five dose; type: cell-based; settings: Homo sapiens, U-251, CNS Cancer, GI50 = molar concentration, read-out: Log10 GI50 (converted)
786-0 = assay: NCI 60 screen, five dose; type: cell-based; settings: Homo sapiens, Renal Cancer, GI50 = molar concentration, read-out: Log10 GI50 (converted)
DU-145 = assay: NCI 60 screen, five dose; type: cell-based; settings: Homo sapiens, Prostate Cancer, GI50 = molar concentration, read-out: Log10 GI50 (converted)
[2] = tested on: Ovarian cancer cell lines; assay: NCI 60 screen, five dose; type: cell-based, human; settings: for GI50: Homo sapiens; for no. cell lines used for the assay/no inhibited by compound: figures in parenthesis
HL-60(TB) = assay: NCI 60 screen, five dose; type: cell-based; settings: Homo sapiens, Leukemia, GI50 = molar concentration, read-out: Log10 GI50 (converted)
HCT-116 = assay: NCI 60 screen, five dose; type: cell-based; settings: Homo sapiens, Colon Cancer, GI50 = molar concentration, read-out: Log10 GI50 (converted)
SNB-19 = assay: NCI 60 screen, five dose; type: cell-based; settings: Homo sapiens, CNS Cancer, GI50 = molar concentration, read-out: Log10 GI50 (converted)
[3] = tested on: HCC4017 lung cancer cells; assay: cell cycle analysis (PI, FACS); type: cell-based, human; settings: for effect on cell cycle distribution: HCC4017, FACs analysis; for subG0 population: HCC4017, even after 64h
Experimental: For cell cycle analysis, cells were washed with PBS, fixed in 70% ethanol for 2 h, washed with PBS and resuspended in staining solution (0.1% Triton X-100, 0.2 mg/ml DNAse-free RNAse A and […]) and incubated at 37C for 15 min. Histograms were acquired on a BD FACSCalibur flow cytometer at UT Southwestern’s core facility. Apoptosis was measured using a FITC Annexin V Apoptosis Detection Kit I (BD Pharmingen) according to manufacturer’s protocol after treating cells with compounds as indicated in Figure legends.

SNB-75 = assay: NCI 60 screen, five dose; type: cell-based; settings: Homo sapiens, CNS Cancer, GI50 = molar concentration, read-out: Log10 GI50 (converted)
A498 = assay: NCI 60 screen, five dose; type: cell-based; settings: Homo sapiens, Renal Cancer, GI50 = molar concentration, read-out: Log10 GI50 (converted)
BT-549 = assay: NCI 60 screen, five dose; type: cell-based; settings: Homo sapiens, Breast Cancer, GI50 = molar concentration, read-out: Log10 GI50 (converted)
MDA-MB-435 = assay: NCI 60 screen, five dose; type: cell-based; settings: Homo sapiens, Melanoma, GI50 = molar concentration, read-out: Log10 GI50 (converted)
EKVX = assay: NCI 60 screen, five dose; type: cell-based; settings: Homo sapiens, Non-Small Cell Lung Cancer, GI50 = molar concentration, read-out: Log10 GI50 (converted)
SK-MEL-5 = assay: NCI 60 screen, five dose; type: cell-based; settings: Homo sapiens, Melanoma, GI50 = molar concentration, read-out: Log10 GI50 (converted)
RXF 393 = assay: NCI 60 screen, five dose; type: cell-based; settings: Homo sapiens, Renal Cancer, GI50 = molar concentration, read-out: Log10 GI50 (converted)
[4] = tested on: Non-Small Cell Lung cancer cell lines; assay: NCI 60 screen, five dose; type: cell-based, human; settings: NSCL cancer; for GI50: Homo sapiens; for no. cell lines used for the assay/no inhibited by compound: figures in parenthesis
OVCAR-5 = assay: NCI 60 screen, five dose; type: cell-based; settings: Homo sapiens, Ovarian Cancer, GI50 = molar concentration, read-out: Log10 GI50 (converted)
OVCAR-4 = assay: NCI 60 screen, five dose; type: cell-based; settings: Homo sapiens, Ovarian Cancer, GI50 = molar concentration, read-out: Log10 GI50 (converted)
T-47D = assay: NCI 60 screen, five dose; type: cell-based; settings: Homo sapiens, T47D, Breast Cancer, GI50 = molar concentration, read-out: Log10 GI50 (converted)
NCI/ADR-RES = assay: NCI 60 screen, five dose; type: cell-based; settings: Homo sapiens, Ovarian Cancer, GI50 = molar concentration, read-out: Log10 GI50 (converted)

## O=C(NO)c1ccc(S(=O)(=O)N2CCN(c3nc4ccccc4o3)CC2)cc1 [Compound 9c, 4-(4-Benzoxazol-2-yl-piperazin-1-sulfonyl)-N -hydroxy-benzamid]
IGROV1
  GI50: 11 µM
Leukemia cell lines
  GI50: 2.24 µM
  no. cell lines used for the assay/no inhibited by compound: 4/4
SW-620
  GI50: 4.37 µM
SK-OV-3
  GI50: 14.8 µM
HBEC-34KT
  IC50: > 10 µM
HBEC-30KT
  IC50: > 10 µM
CAKI-1
  GI50: 3.39 µM
Breast cancer cell lines
  GI50: 8.71 µM
  no. cell lines used for the assay/no inhibited by compound: 2/7
SK-MEL-2
  GI50: 16.2 µM
ACHN
  GI50: 21.4 µM
CCRF-CEM
  GI50: 1.78 µM
CNS cancer cell lines
  GI50: 5.82 µM
  no. cell lines used for the assay/no inhibited by compound: 4/6
SF-539
  GI50: 3.72 µM
[1]
  GI50: 4.89 µM
  no. cell lines used for the assay/no inhibited by compound: 2/2
LOX IMVI
  GI50: 10.7 µM
U251
  GI50: 6.46 µM
786-0
  GI50: 23.4 µM
DU-145
  GI50: 7.41 µM
[2]
  GI50: 7.66 µM
  no. cell lines used for the assay/no inhibited by compound: 2/5
HL-60(TB)
  GI50: 5.89 µM
HCT-116
  GI50: 4.07 µM
SNB-19
  GI50: 10 µM
[3]
  effect on cell cycle distribution: affect cell cycle distribution after just 18h of treatment
  subG0 population: no subG0 population was observed
SNB-75
  GI50: 4.37 µM
A498
  GI50: 2.82 µM
BT-549
  GI50: 12 µM
MDA-MB-435
  GI50: 3.63 µM
EKVX
  GI50: 8.91 µM
SK-MEL-5
  GI50: 5.62 µM
RXF 393
  GI50: 4.47 µM
[4]
  GI50: 9.51 µM
  no. cell lines used for the assay/no inhibited by compound: 3/9
OVCAR-5
  GI50: 10.2 µM
OVCAR-4
  GI50: 4.9 µM
T-47D
  GI50: 5.75 µM
NCI/ADR-RES
  GI50: 21.9 µM

## Cn1c(N2CCN(S(=O)(=O)c3ccc(C(=O)NO)cc3)CC2)nc2ccccc21 [Compound 9b, 4-[4-(1-methylbenzimidazol-2-yl)piperazin-1-yl]sulfonylbenzenecarbohydroxamic acid]
HBEC-34KT
  IC50: > 10 µM
HBEC-30KT
  IC50: > 10 µM
[3]
  effect on cell cycle distribution: affect cell cycle distribution after just 18h of treatment
  subG0 population: no subG0 population was observed

## O=C(NO)c1ccc(S(=O)(=O)N2CCN(c3nc4ccccc4s3)CC2)cc1 [Compound 9d, 4-(4-Benzothiazol-2-yl-piperazin-1-sulfonyl)-N -hydroxy-benzamid]
IGROV1
  GI50: 3.55 µM
Leukemia cell lines
  GI50: 1.77 µM
  no. cell lines used for the assay/no inhibited by compound: 5/5
SW-620
  GI50: 1.66 µM
SK-OV-3
  GI50: 7.76 µM
HBEC-34KT
  IC50: 8.22 µM
HBEC-30KT
  IC50: 5.37 µM
CAKI-1
  GI50: 2.34 µM
Breast cancer cell lines
  GI50: 3.88 µM
  no. cell lines used for the assay/no inhibited by compound: 4/7
SK-MEL-2
  GI50: 6.31 µM
ACHN
  GI50: 4.57 µM
CCRF-CEM
  GI50: 1.82 µM
CNS cancer cell lines
  GI50: 2.77 µM
  no. cell lines used for the assay/no inhibited by compound: 4/6
SF-539
  GI50: 2.34 µM
[1]
  GI50: 2.48 µM
  no. cell lines used for the assay/no inhibited by compound: 2/2
LOX IMVI
  GI50: 2.51 µM
U251
  GI50: 2.75 µM
786-0
  GI50: 9.12 µM
DU-145
  GI50: 3.02 µM
[2]
  GI50: 4.01 µM
  no. cell lines used for the assay/no inhibited by compound: 3/3
HL-60(TB)
  GI50: 2.57 µM
HCT-116
  GI50: 1.7 µM
SNB-19
  GI50: 5.37 µM
SNB-75
  GI50: 1.74 µM
A498
  GI50: 1.82 µM
BT-549
  GI50: 2.4 µM
MDA-MB-435
  GI50: 1.86 µM
EKVX
  GI50: 4.37 µM
SK-MEL-5
  GI50: 3.98 µM
RXF 393
  GI50: 2 µM
[4]
  GI50: 3.77 µM
  no. cell lines used for the assay/no inhibited by compound: 4/9
OVCAR-5
  GI50: 7.76 µM
OVCAR-4
  GI50: 3.8 µM
T-47D
  GI50: 3.89 µM
NCI/ADR-RES
  GI50: 6.61 µM
